Laboratory results: PubChem BioAssay AID1963962 (Molecular Pharmacology Branch, DTP, NCI, 2024)

Tested on: 967376-340-R-J2-PDC multicell spheroid viability
Experiment: Anticancer human tumor 967376-340-R-J2-PDC patient-derived colon adenocarcinoma cell line growth inhibition [PI3K]
Conditions: for IC50: curve of first compound; for viability, T/C: stronger effect = lower value
Summary of the method: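 Tumor cells were combined with HUVEC and MSCs into spheroids, then dosed with PI3K-inhibitor combinations over half-log ranges capped near clinical Cmax or 10 microM.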

[1] = second compound 0.00316 µM, first compound 0.000316 µM
[2] = second compound 0.00316 µM, first compound 0.001 µM
[3] = second compound 0.00316 µM, first compound 0.00316 µM
[4] = second compound 0.00316 µM, first compound 0.01 µM
[5] = second compound 0.00316 µM, first compound 0.0316 µM
[6] = second compound 0.00316 µM, first compound 0.1 µM
[7] = second compound 0.01 µM, first compound 0.000316 µM
[8] = second compound 0.01 µM, first compound 0.001 µM
[9] = second compound 0.01 µM, first compound 0.00316 µM
[10] = second compound 0.01 µM, first compound 0.01 µM
[11] = second compound 0.01 µM, first compound 0.0316 µM
[12] = second compound 0.01 µM, first compound 0.1 µM
[13] = second compound 0.0316 µM, first compound 0.000316 µM
[14] = second compound 0.0316 µM, first compound 0.001 µM
[15] = second compound 0.0316 µM, first compound 0.00316 µM
[16] = second compound 0.0316 µM, first compound 0.01 µM
[17] = second compound 0.0316 µM, first compound 0.0316 µM
[18] = second compound 0.0316 µM, first compound 0.1 µM
[19] = second compound 0.1 µM, first compound 0.000316 µM
[20] = second compound 0.1 µM, first compound 0.001 µM
[21] = second compound 0.1 µM, first compound 0.00316 µM
[22] = second compound 0.1 µM, first compound 0.01 µM
[23] = second compound 0.1 µM, first compound 0.0316 µM
[24] = second compound 0.1 µM, first compound 0.1 µM
[25] = second compound 0.316 µM, first compound 0.000316 µM
[26] = second compound 0.316 µM, first compound 0.001 µM
[27] = second compound 0.316 µM, first compound 0.00316 µM
[28] = second compound 0.316 µM, first compound 0.01 µM
[29] = second compound 0.316 µM, first compound 0.0316 µM
[30] = second compound 0.316 µM, first compound 0.1 µM
[31] = second compound 1 µM, first compound 0.000316 µM
[32] = second compound 1 µM, first compound 0.001 µM
[33] = second compound 1 µM, first compound 0.00316 µM
[34] = second compound 1 µM, first compound 0.01 µM
[35] = second compound 1 µM, first compound 0.0316 µM
[36] = second compound 1 µM, first compound 0.1 µM
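Also: spheroids exposed to agents for 7 days before read-out.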
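For viability, T/C in this document: luminescence used as surrogate of cell viability.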

Compound: CC(=O)c1c(C)c2cnc(Nc3ccc(N4CCNCC4)cn3)nc2n(C2CCCC2)c1=O + COc1c(OCCCN2CCOCC2)ccc2c3n(c(=NC(=O)c4cnc(N)nc4)nc12)CCN3
- IC50 (second compound 0.00316 µM): > 100 nM
- IC50 (second compound 0.01 µM): > 100 nM
- IC50 (second compound 0.0316 µM): > 100 nM
- IC50 (second compound 0.1 µM): > 100 nM
- IC50 (second compound 0.316 µM): < 0.316 nM
- IC50 (second compound 1 µM): < 0.316 nM
- viability, T/C [1]: 92.9%
- viability, T/C [2]: 95.8%
- viability, T/C [3]: 94.7%
- viability, T/C [4]: 88.5%
- viability, T/C [5]: 87.5%
- viability, T/C [6]: 74.7%
- viability, T/C [7]: 89.8%
- viability, T/C [8]: 99.5%
- viability, T/C [9]: 92.2%
- viability, T/C [10]: 101%
- viability, T/C [11]: 78%
- viability, T/C [12]: 60.9%
- viability, T/C [13]: 72.4%
- viability, T/C [14]: 79.9%
- viability, T/C [15]: 73.2%
- viability, T/C [16]: 73.8%
- viability, T/C [17]: 86.3%
- viability, T/C [18]: 74.3%
- viability, T/C [19]: 64.2%
- viability, T/C [20]: 49.7%
- viability, T/C [21]: 64.5%
- viability, T/C [22]: 59.3%
- viability, T/C [23]: 62.1%
- viability, T/C [24]: 54.6%
- viability, T/C [25]: 46.7%
- viability, T/C [26]: 39%
- viability, T/C [27]: 37%
- viability, T/C [28]: 42.2%
- viability, T/C [29]: 45.5%
- viability, T/C [30]: 44.7%
- viability, T/C [31]: 41.5%
- viability, T/C [32]: 37.3%
- viability, T/C [33]: 34.8%
- viability, T/C [34]: 33.5%
- viability, T/C [35]: 34.3%
- viability, T/C [36]: 27.9%

Compound: CC(C)n1nc(-c2ccc3oc(N)nc3c2)c2c(N)ncnc21 + COc1c(OCCCN2CCOCC2)ccc2c3n(c(=NC(=O)c4cnc(N)nc4)nc12)CCN3
- IC50 (second compound 0.00316 µM): > 100 nM
- IC50 (second compound 0.01 µM): 98.1 nM
- IC50 (second compound 0.0316 µM): 32.9 nM
- IC50 (second compound 0.1 µM): 17.7 nM
- IC50 (second compound 0.316 µM): 0.541 nM
- IC50 (second compound 1 µM): < 0.316 nM
- viability, T/C [1]: 85.7%
- viability, T/C [2]: 106%
- viability, T/C [3]: 88.7%
- viability, T/C [4]: 74.1%
- viability, T/C [5]: 76.5%
- viability, T/C [6]: 54.8%
- viability, T/C [7]: 109%
- viability, T/C [8]: 97.2%
- viability, T/C [9]: 81%
- viability, T/C [10]: 91.1%
- viability, T/C [11]: 67.3%
- viability, T/C [12]: 47.1%
- viability, T/C [13]: 85.9%
- viability, T/C [14]: 83.9%
- viability, T/C [15]: 65.4%
- viability, T/C [16]: 63.8%
- viability, T/C [17]: 50%
- viability, T/C [18]: 39.9%
- viability, T/C [19]: 58%
- viability, T/C [20]: 49.5%
- viability, T/C [21]: 53.9%
- viability, T/C [22]: 51.5%
- viability, T/C [23]: 47.9%
- viability, T/C [24]: 27%
- viability, T/C [25]: 61.5%
- viability, T/C [26]: 36.3%
- viability, T/C [27]: 38%
- viability, T/C [28]: 41.4%
- viability, T/C [29]: 37.2%
- viability, T/C [30]: 21.9%
- viability, T/C [31]: 34.9%
- viability, T/C [32]: 28.2%
- viability, T/C [33]: 32.1%
- viability, T/C [34]: 29.8%
- viability, T/C [35]: 31.6%
- viability, T/C [36]: 26.5%
